Test results published in US20260108546A1 (ELI LILLY AND COMPANY, priority 2024, published 2026).

Molecular target: T1, hGIP-R (Homo sapiens, UniProt P48546)
T1 construct: expressed in transfected cells; host or cells: HEK-293 clonal cell lines
T1 sequence (P48546 22-466): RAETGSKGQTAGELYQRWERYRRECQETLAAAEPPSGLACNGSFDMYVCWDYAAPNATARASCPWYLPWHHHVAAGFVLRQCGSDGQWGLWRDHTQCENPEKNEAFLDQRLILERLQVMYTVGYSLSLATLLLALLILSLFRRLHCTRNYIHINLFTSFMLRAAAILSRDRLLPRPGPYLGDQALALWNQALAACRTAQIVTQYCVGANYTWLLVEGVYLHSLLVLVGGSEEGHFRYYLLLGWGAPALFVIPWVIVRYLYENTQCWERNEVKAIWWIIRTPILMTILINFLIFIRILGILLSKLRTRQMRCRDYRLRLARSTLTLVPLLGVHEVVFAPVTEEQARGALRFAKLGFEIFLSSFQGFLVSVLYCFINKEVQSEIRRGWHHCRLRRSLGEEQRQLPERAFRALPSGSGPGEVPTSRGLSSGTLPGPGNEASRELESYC
Assay: Functional hGIP-R Assay (cAMP formation, HTRF)
Type: cell-based
Settings: for Emax: cAMP efficacy, percent of maximal response to GIP(1-42)OH, 37° C., 0.1% bovine casein, arithmetic mean ± SEM; for EC50: cAMP potency, HEK-293 cells expressing hGIP-R, incubated at 37° C. in the presence of 0.1% bovine casein, geometric mean, read-out: Human GIP-R EC50, nM (SEM, n)
In short: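 HEK-293 cells expressing hGIP-R were given a 20-point compound series in DMEM with 0.1% casein, 250 μM IBMX, 1% DMSO, 30 min at 37 °C. cAMP was read by HTRF against a standard curve, expressed as % of human GIP (1-42) OH maximum; EC50 and Emax came from four-parameter fits.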

| Emax [%] | EC50 [nM] | SMILES |
| --- | --- | --- |
| 70.9 ± 1.67 | 3.47 | Cc1cn2cc(-c3ccc([C@H]4C[C@@]45CCN([C@H](Cc4cnn(C(F)F)c4)C(=O)NC(C)(C)Cn4nc(C(F)(F)F)cc4-c4cc(F)c(=O)n(C)c4)C5=O)c(F)c3)cnc2n1 [Example 100, (2R)-3-(1-(Difluoromethyl)-1H-pyrazol-4-yl)-N-(1-(5-(5-fluoro-1-methyl-6-oxo-1,6-dihydropyridin-3-yl)-3-(trifluoromethyl)-1H-pyrazol-1-yl)-2-methylpropan-2-yl)-2-((1S,3R)-1-(2-fluoro-4-(2-methylimidazo[1,2-a]pyrimidin-6-yl)phenyl)-4-oxo-5-azaspiro[2.4]heptan-5-yl)propanamide] |
| 56 ± 3.91 | 4.39 | Cn1cc2cc(-c3ccc([C@H]4C[C@@]45CCN([C@H](Cc4cnn(C(F)F)c4)C(=O)NC(C)(C)Cn4nc(C(F)(F)F)cc4-c4ccc(=O)n(C)c4)C5=O)c(F)c3)cnc2n1 [Example 117, (2R)-3-(1-(Difluoromethyl)-1H-pyrazol-4-yl)-2-((1S,3R)-1-(2-fluoro-4-(2-methyl-2H-pyrazolo[3,4-b]pyridin-5-yl)phenyl)-4-oxo-5-azaspiro[2.4]heptan-5-yl)-N-(2-methyl-1-(5-(1-methyl-6-oxo-1,6-dihydropyridin-3-yl)-3-(trifluoromethyl)-1H-pyrazol-1-yl)propan-2-yl)propanamide] |
| 72.4 ± 2.16 | 33.5 | [2H]C([2H])([2H])n1cc(-c2cc(C(F)(F)F)nn2CC(C)(C)NC(=O)[C@@H](Cc2cnn(C(F)F)c2)N2CC[C@@]3(C[C@@H]3c3ccc(-c4cnc5nn(C)cc5c4)cc3)C2=O)ccc1=O [Example 120, (R)-3-(1-(Difluoromethyl)-1H-pyrazol-4-yl)-N-(2-methyl-1-(5-(1-(methyl-d3)-6-oxo-1,6-dihydropyridin-3-yl)-3-(trifluoromethyl)-1H-pyrazol-1-yl)propan-2-yl)-2-((1R,3R)-1-(4-(2-methyl-2H-pyrazolo[3,4-b]pyridin-5-yl)phenyl)-4-oxo-5-azaspiro[2.4]heptan-5-yl)propanamide] |
| 74.6 ± 1.47 | 107 | Cn1cc2cc(-c3ccc([C@H]4C[C@@]45CCN([C@H](Cc4cnn(C(F)F)c4)C(=O)NC(C)(C)Cn4nc(C(F)(F)F)cc4-c4ccc(OC(F)F)nn4)C5=O)cc3)cnc2n1 [Example 121, (R)-N-(1-(5-(6-(Difluoromethoxy)pyridazin-3-yl)-3-(trifluoromethyl)-1H-pyrazol-1-yl)-2-methylpropan-2-yl)-3-(1-(difluoromethyl)-1H-pyrazol-4-yl)-2-((1R,3R)-1-(4-(2-methyl-2H-pyrazolo[3,4-b]pyridin-5-yl)phenyl)-4-oxo-5-azaspiro[2.4]heptan-5-yl)propanamide] |
| 90.8 ± 7.25 | 103 | Cc1nc(C2CC2)nc(O)c1-c1cc(C(F)(F)F)nn1CC(C)(C)NC(=O)[C@@H](Cc1cnn(C(F)F)c1)N1CC[C@@]2(C[C@@H]2c2ccc(-c3cnc4nn(C)cc4c3)cc2)C1=O [Example 122, (R)-N-(1-(5-(2-Cyclopropyl-4-hydroxy-6-methylpyrimidin-5-yl)-3-(trifluoromethyl)-1H-pyrazol-1-yl)-2-methylpropan-2-yl)-3-(1-(difluoromethyl)-1H-pyrazol-4-yl)-2-((1R,3R)-1-(4-(2-methyl-2H-pyrazolo[3,4-b]pyridin-5-yl)phenyl)-4-oxo-5-azaspiro[2.4]heptan-5-yl)propanamide] |
| 95.7 ± 6.9 | 18.7 | Cn1cc2cc(-c3ccc([C@H]4C[C@@]45CCN([C@H](Cc4cnn(C(F)F)c4)C(=O)NC(C)(C)Cn4nc(C(F)(F)F)cc4-c4cccn(CC#N)c4=O)C5=O)cc3)cnc2n1 [Example 123, (R)-N-(1-(5-(1-(Cyanomethyl)-2-oxo-1,2-dihydropyridin-3-yl)-3-(trifluoromethyl)-1H-pyrazol-1-yl)-2-methylpropan-2-yl)-3-(1-(difluoromethyl)-1H-pyrazol-4-yl)-2-((1R,3R)-1-(4-(2-methyl-2H-pyrazolo[3,4-b]pyridin-5-yl)phenyl)-4-oxo-5-azaspiro[2.4]heptan-5-yl)propanamide] |
| 56.9 ± 11.2 | 55.6 | Cn1cc2cc(-c3ccc([C@H]4C[C@@]45CCN([C@H](Cc4cnn(C(F)F)c4)C(=O)NC(C)(C)Cn4nc(C(F)(F)F)cc4-c4cc(F)c(CO)cc4F)C5=O)cc3)cnc2n1 [Example 124, (R)-N-(1-(5-(2,5-Difluoro-4-(hydroxymethyl)phenyl)-3-(trifluoromethyl)-1H-pyrazol-1-yl)-2-methylpropan-2-yl)-3-(1-(difluoromethyl)-1H-pyrazol-4-yl)-2-((1R,3R)-1-(4-(2-methyl-2H-pyrazolo[3,4-b]pyridin-5-yl)phenyl)-4-oxo-5-azaspiro[2.4]heptan-5-yl)propanamide] |
| 68.5 ± 6.59 | 38.5 | Cn1cc2cc(-c3ccc([C@H]4C[C@@]45CCN([C@H](Cc4cnn(C(F)F)c4)C(=O)NC(C)(C)Cn4nc(C(F)(F)F)cc4-c4ccc(=O)n(CC(F)(F)F)c4)C5=O)cc3)cnc2n1 [Example 125, (R)-3-(1-(Difluoromethyl)-1H-pyrazol-4-yl)-N-(2-methyl-1-(5-(6-oxo-1-(2,2,2-trifluoroethyl)-1,6-dihydropyridin-3-yl)-3-(trifluoromethyl)-1H-pyrazol-1-yl)propan-2-yl)-2-((1R,3R)-1-(4-(2-methyl-2H-pyrazolo[3,4-b]pyridin-5-yl)phenyl)-4-oxo-5-azaspiro[2.4]heptan-5-yl)propanamide] |
| 93.6 ± 1.06 | 42.3 | Cn1cc2cc(-c3ccc([C@H]4C[C@@]45CCN([C@H](Cc4cnn(C(F)F)c4)C(=O)NC(C)(C)Cn4nc(C(F)(F)F)cc4-c4cccn(CC(N)=O)c4=O)C5=O)cc3)cnc2n1 [Example 126, (R)-N-(1-(5-(1-(2-Amino-2-oxoethyl)-2-oxo-1,2-dihydropyridin-3-yl)-3-(trifluoromethyl)-1H-pyrazol-1-yl)-2-methylpropan-2-yl)-3-(1-(difluoromethyl)-1H-pyrazol-4-yl)-2-((1R,3R)-1-(4-(2-methyl-2H-pyrazolo[3,4-b]pyridin-5-yl)phenyl)-4-oxo-5-azaspiro[2.4]heptan-5-yl)propanamide] |
| 56.1 ± 4.15 | 60.1 | CNC(=O)Cn1cc(-c2cc(C(F)(F)F)nn2CC(C)(C)NC(=O)[C@@H](Cc2cnn(C(F)F)c2)N2CC[C@@]3(C[C@@H]3c3ccc(-c4cnc5nn(C)cc5c4)cc3)C2=O)cn1 [Example 127, (R)-3-(1-(Difluoromethyl)-1H-pyrazol-4-yl)-N-(2-methyl-1-(1′-(2-(methylamino)-2-oxoethyl)-5-(trifluoromethyl)-1′H,2H-[3,4′-bipyrazol]-2-yl)propan-2-yl)-2-((1R,3R)-1-(4-(2-methyl-2H-pyrazolo[3,4-b]pyridin-5-yl)phenyl)-4-oxo-5-azaspiro[2.4]heptan-5-yl)propanamide] |
| 85.2 ± 1.24 | 163 | Cc1c(-c2cc(C(F)(F)F)nn2CC(C)(C)NC(=O)[C@@H](Cc2cnn(C(F)F)c2)N2CC[C@@]3(C[C@@H]3c3ccc(-c4cnc5nn(C)cc5c4)cc3)C2=O)cn(C)c(=O)c1C#N [Example 128, (R)-N-(1-(5-(5-Cyano-1,4-dimethyl-6-oxo-1,6-dihydropyridin-3-yl)-3-(trifluoromethyl)-1H-pyrazol-1-yl)-2-methylpropan-2-yl)-3-(1-(difluoromethyl)-1H-pyrazol-4-yl)-2-((1R,3R)-1-(4-(2-methyl-2H-pyrazolo[3,4-b]pyridin-5-yl)phenyl)-4-oxo-5-azaspiro[2.4]heptan-5-yl)propanamide] |
